The structures appear in SMILES notation. Activity calls are given as the source filed them. The rule behind the calls is not given here.

What is called inhibition is the relative decrease from the control value, in per cent. A word on the Ki: it is a measure of affinity in units of concentration, obtained from inhibition or displacement. For orientation: ED50 means the dose at which the effect has come halfway, by size or by number of responders. High values mean a need for a large dose, low ones an effect at a small dose. Broadly, the Kb is the equilibrium dissociation constant of an antagonist, usually derived from a functional assay.

Series [1] has as its target T1, Delta-type opioid receptor (Homo sapiens, UniProt P41143). In words: Displacement of [3H]DADLE from human recombinant delta opioid receptor expressed in rat Chem-1 (RBL) cell membranes at 100 nM incubated for 60 mins relative to control. For orientation: Displacement assays read how much labelled ligand stays bound in the presence of the test substance.
Series [2] concerns the target Kappa-type opioid receptor (Homo sapiens, UniProt P41145). In words: Displacement of [3H]U69,593 from human recombinant kappa opioid receptor expressed in rat RBL cell membranes incubated for 60 mins.
Series [3] can be described thus: Protein binding in human plasma at 1 uM by equilibrium dialysis. The note with it: read-out: PPB (converted). In kind it is ADME, cell-free. For orientation: In equilibrium dialysis free small molecules cross a membrane that holds back macromolecules.
Series [4] has as its system Rattus norvegicus. In words: Antinociceptive activity in Sprague-Dawley rat dosed intravenously using cumulative dosing every 5 mins until rat maxed-out on hot plate by hot plate test relative to control. The series is classed as functional. On the technique in general: Thermal pain tests record how soon the animal reacts.
For series [5] the following is noted: human, microsomes, 1 h.
The next series can be described thus: in vitro. The note with it: human, plasma.
The conditions of series [6]: human, microsomes, 1 µM.
Series [7] in a line: Toxicity in Sprague-Dawley rat assessed as induction of hypothermia at 0.0032 to 10 mg/kg, iv. In kind it is organism-based. The note with it: in vivo.
Series [8] deals with T1, Delta-type opioid receptor. In words: Displacement of [3H]DADLE from human recombinant delta opioid receptor expressed in rat Chem-1 (RBL) cell membranes at 10000 nM incubated for 60 mins relative to control.
Series [9] deals with Rattus norvegicus. In words: Antinociceptive activity in Sprague-Dawley rat dosed intravenously using cumulative dosing every 5 mins until rat maxed-out on hot plate by hot plate test. In kind it is functional. The note with it: iv.
For series [10], the target named is T1, Delta-type opioid receptor. In words: biochemical.
Series [11] concerns the target T1, Delta-type opioid receptor. In words: Antagonist activity at human recombinant delta opioid receptor expressed in rat Chem-1 (RBL) cells assessed as inhibition of DPDPE-induced intracellular calcium levels incubated at room temperature by fluorimetry. In kind it is functional, cell-based.
For series [12], the system named is Rattus norvegicus. In words: Antinociceptive activity in Sprague-Dawley rat dosed intravenously using cumulative dosing every 5 mins until rat maxed-out on hot plate co-treated with 0.1 mg/kg naltrexone by hot plate test. The series is classed as functional, organism-based.
The target of another series is Mu-type opioid receptor (Homo sapiens, UniProt P35372). In words: biochemical.
Sequence of Mu-type opioid receptor (P35372 whole entry): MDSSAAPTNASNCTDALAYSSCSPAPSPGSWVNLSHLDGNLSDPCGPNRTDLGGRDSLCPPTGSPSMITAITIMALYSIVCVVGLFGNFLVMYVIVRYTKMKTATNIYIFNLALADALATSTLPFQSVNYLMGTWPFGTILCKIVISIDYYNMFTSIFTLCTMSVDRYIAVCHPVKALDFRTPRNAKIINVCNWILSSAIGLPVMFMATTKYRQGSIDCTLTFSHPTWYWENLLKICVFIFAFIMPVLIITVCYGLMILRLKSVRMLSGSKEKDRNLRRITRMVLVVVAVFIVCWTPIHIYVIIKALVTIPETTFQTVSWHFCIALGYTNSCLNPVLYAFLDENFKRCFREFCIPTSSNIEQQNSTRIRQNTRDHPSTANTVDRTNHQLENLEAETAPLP

T1 sequence (P41143 whole entry): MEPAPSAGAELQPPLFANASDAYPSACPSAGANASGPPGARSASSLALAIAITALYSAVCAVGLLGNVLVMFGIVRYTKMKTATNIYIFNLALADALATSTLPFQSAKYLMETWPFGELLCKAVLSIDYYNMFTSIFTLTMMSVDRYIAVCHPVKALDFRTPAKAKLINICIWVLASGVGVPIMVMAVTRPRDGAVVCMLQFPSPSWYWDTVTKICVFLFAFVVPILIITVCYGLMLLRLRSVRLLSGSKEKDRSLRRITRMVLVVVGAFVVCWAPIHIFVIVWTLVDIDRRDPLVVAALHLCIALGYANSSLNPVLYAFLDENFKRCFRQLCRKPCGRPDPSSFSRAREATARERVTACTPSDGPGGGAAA
Sequence of Kappa-type opioid receptor (P41145 whole entry): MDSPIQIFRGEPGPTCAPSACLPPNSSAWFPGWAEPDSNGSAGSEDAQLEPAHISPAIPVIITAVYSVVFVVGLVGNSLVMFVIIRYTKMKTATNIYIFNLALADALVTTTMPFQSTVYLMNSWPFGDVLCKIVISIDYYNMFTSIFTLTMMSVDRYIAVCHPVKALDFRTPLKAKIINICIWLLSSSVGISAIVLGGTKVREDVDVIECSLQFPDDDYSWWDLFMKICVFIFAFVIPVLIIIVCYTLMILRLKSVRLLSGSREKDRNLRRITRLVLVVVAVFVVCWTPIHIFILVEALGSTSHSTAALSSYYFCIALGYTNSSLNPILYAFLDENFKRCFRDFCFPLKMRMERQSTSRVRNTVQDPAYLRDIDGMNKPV

Turning to `CC[C@@H]1CN2CC[C@@]3(O)C(=Nc4cccc(OC)c43)[C@@H]2C[C@@H]1/C(=C\OC)C(=O)OC`, the inhibition turned out to be 19.6% in [1] and 93.7% in [8]. The figures for the Ki in series [2] and in series [10] were 74.1 nM and 236 nM, respectively. Moreover, the fraction unbound at 1 µM (in [3]; in “in vitro”) was 0.1 throughout. For the same molecule, the MPE in the series with Rattus norvegicus [4] was found to be 100%. In series [5], this molecule came in with a Kel of 0.0041 min⁻¹. The Fu in [6] is on record as 0.852. Moreover, the Activity result in series [7] is given as “Non-Toxic”. Besides, the ED50 in the series on Rattus norvegicus [9] worked out at 1.91 mg/kg. In series [11], the Kb came to 550 nM. Moreover, in the series on Rattus norvegicus [12], the result was inactive.
Turning to `CN1CC[C@]23c4c5ccc(O)c4O[C@H]2[C@@H](O)C=C[C@H]3[C@H]1C5` [MORPHINE], the 50% effect level in the series on Rattus norvegicus [9] (ED50) was put at a dose of 5.1 mg/kg. Besides, the outcome in the series on Rattus norvegicus [12] was inactive.
Consider `CC[C@@H]1CN2CCc3c([nH]c4cccc(O)c34)[C@@H]2C[C@@H]1/C(=C\OC)C(=O)OC`, for which the affinity at Mu-type opioid receptor corresponds to a Ki of 105 nM.

Source of the values: ChEMBL document CHEMBL4376854, “Investigation of the Adrenergic and Opioid Binding Affinities, Metabolic Stability, Plasma Protein Binding Properties, and Functional Effects of Selected Indole-Based Kratom Alkaloids” (J Med Chem, 2020).
